Values quoted from earlier work, collected in US20070112055A1, “Crystalline forms of almotriptan and processes for their preparation” (Glenmark Pharmaceuticals Limited, priority 2005, published 2007).

Experiments:
5-HT1F receptors = target: T1, 5-HT1F receptors (Homo sapiens, UniProt P30939); details: general statement of the related art
T1 sequence (P30939 1-366): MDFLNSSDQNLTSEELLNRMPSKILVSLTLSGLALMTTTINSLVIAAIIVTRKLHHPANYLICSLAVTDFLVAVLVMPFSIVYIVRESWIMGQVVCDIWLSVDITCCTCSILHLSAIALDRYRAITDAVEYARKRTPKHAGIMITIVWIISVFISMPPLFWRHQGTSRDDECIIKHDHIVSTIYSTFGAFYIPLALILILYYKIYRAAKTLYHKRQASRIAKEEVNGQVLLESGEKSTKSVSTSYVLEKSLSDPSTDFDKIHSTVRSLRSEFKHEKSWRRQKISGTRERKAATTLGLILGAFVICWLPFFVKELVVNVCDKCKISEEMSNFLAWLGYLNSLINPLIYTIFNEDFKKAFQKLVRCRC

5-HT1B receptors = 5-HT1B receptors (Homo sapiens, UniProt P28222); details: general statement of the related art
5-HT1B receptors, sequence (P28222 whole entry): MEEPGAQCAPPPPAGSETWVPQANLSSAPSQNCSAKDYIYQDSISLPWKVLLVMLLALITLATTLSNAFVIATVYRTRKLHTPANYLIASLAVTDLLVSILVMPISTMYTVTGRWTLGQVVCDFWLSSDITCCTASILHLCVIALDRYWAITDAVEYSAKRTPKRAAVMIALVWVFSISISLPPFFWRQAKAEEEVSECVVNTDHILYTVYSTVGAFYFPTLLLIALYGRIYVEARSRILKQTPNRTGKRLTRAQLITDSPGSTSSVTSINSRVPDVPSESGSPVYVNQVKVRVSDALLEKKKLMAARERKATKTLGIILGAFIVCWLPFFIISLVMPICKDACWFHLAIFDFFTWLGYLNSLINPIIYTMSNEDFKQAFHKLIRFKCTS

5-HT1D receptors = 5-HT1D receptors (Homo sapiens, UniProt P28221); details: general statement of the related art
5-HT1D receptors, sequence (P28221 whole entry): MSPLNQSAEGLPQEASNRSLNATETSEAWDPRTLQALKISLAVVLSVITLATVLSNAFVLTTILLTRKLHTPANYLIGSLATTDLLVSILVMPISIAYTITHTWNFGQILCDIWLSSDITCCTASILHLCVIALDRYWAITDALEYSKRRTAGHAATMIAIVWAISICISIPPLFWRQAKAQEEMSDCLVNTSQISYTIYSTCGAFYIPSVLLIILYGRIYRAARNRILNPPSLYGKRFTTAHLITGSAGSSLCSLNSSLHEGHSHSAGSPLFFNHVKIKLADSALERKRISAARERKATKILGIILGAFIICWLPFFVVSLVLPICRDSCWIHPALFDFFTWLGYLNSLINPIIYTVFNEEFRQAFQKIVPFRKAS

5-HT1A receptors = target: T2, 5-HT1A receptors (Homo sapiens, UniProt P08908); details: general statement of the related art
T2 sequence (P08908 1-422): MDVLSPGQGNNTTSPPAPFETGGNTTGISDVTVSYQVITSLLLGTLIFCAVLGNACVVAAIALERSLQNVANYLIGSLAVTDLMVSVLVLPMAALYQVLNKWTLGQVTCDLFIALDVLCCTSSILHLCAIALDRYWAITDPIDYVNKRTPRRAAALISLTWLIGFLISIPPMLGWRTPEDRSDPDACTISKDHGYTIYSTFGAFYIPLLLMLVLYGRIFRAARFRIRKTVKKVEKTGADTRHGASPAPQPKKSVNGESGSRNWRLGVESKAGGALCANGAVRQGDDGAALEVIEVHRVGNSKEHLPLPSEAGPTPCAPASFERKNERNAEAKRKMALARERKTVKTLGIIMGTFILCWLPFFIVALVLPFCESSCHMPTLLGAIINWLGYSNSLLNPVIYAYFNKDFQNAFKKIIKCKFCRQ

5-HT7 receptors = 5-HT7 receptors (Homo sapiens, UniProt P34969); details: general statement of the related art
5-HT7 receptors, sequence (P34969 whole entry): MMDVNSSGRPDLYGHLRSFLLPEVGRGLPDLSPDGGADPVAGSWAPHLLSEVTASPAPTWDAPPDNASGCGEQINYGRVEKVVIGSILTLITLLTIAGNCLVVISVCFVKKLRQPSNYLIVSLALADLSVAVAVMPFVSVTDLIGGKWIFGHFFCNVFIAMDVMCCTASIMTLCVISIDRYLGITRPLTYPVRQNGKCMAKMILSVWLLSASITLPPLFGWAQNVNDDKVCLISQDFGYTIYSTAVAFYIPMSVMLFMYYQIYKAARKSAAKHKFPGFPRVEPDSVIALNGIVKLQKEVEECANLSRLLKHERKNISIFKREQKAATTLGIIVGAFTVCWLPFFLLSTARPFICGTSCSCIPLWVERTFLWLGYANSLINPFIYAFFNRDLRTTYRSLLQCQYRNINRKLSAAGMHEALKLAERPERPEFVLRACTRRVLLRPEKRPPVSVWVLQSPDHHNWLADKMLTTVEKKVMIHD

[1] = amorphous form compared with the crystalline forms

affinity to 5-HT1F receptors (5-HT1F receptors)	affinity to 5-HT1B receptors (5-HT1B receptors)	affinity to 5-HT1D receptors (5-HT1D receptors)	affinity for 5-HT1A receptors (5-HT1A receptors)	affinity for 5-HT7 receptors (5-HT7 receptors)	SMILES	bioavailability [1]
high affinity	high affinity	high affinity	weak affinity	weak affinity	CN(C)CCc1c[nH]c2ccc(CS(=O)(=O)N3CCCC3)cc12 [Almotriptan, 1-[[[3-[2-(dimethylamino)ethyl]indol-5-yl]methyl]sulfonyl]pyrrolidine]	
					CO/N=C(\C(=O)N[C@@H]1C(=O)N2C(C(=O)OC(C)OC(C)=O)=C(COC(N)=O)CS[C@H]12)c1ccco1 (stereo partly drawn) [cefuroxime axietil]	much higher bioavailability than the crystalline forms
